Results reported in PubChem BioAssay AID977605 (Broad Institute, 2014).
Activity calls are given as the source filed them.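 Rule for the calls: active = fitted curve reaches 40% activation below the top valid tested dose, in every test run; inconclusive = test runs disagree on the call; inactive = the rest, including effects opposite to the expected direction.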

Experiment: E-selectin inducers in HUVECs, dose response, imaging, HUVEC, cherry-picked samples (AID 977605);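 note: signal is the share of imaged cells scored positive for E-selectin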
Settings: HUVEC E-selectin immunostaining
[1] = at 19.5 µM (top of the series), percent of TNF-alpha response over vehicle
[2] = at 21 µM (top of the series), percent of TNF-alpha response over vehicle

Structure (SMILES) | activation [1] | other results
C[C@H](CO)N1C[C@H](C)[C@H](CN(C)S(=O)(=O)c2cccs2)Oc2c(NC(=O)Nc3ccccc3)cccc2C1=O | 1% (inactive) | –
COc1ccc(S(=O)(=O)N(C)C[C@H]2Oc3ccc(NS(=O)(=O)c4c(C)noc4C)cc3C(=O)N([C@@H](C)CO)C[C@H]2C)cc1 | 0.307% (inactive) | –
C[C@H]1CN([C@@H](C)CO)C(=O)c2cc(NC(=O)Cn3cnnn3)ccc2O[C@@H]1CN(C)Cc1ccc(Oc2ccccc2)cc1 | -0.201% (inactive) | –
C[C@H](CO)N1C[C@H](C)[C@H](CN(C)S(=O)(=O)c2ccc(Cl)cc2)Oc2ccc(NC(=O)NC3CCCCC3)cc2C1=O | -0.048% (inactive) | –
C=C(C)CCC(C)N1CCC(n2nccc2NC(=O)CCOc2ccccc2)CC1 (centres undefined) | -0.056% (inactive) | –
C[C@H](CO)N1C[C@H](C)[C@@H](CN(C)S(C)(=O)=O)Oc2ccc(NS(=O)(=O)c3cccs3)cc2C1=O | -0.072% (inactive) | –
Cc1ccccc1NC(=O)c1cc(S(=O)(=O)Nc2cccc(C(=O)O)c2)ccc1Cl | 0.3% (inactive) | –
C[C@@H]1CN([C@H](C)CO)C(=O)c2cc(NC(=O)Nc3ccc4c(c3)OCO4)ccc2O[C@H]1CN(C)S(=O)(=O)c1ccc(F)cc1 | -0.11% (inactive) | –
COc1ccc(S(=O)(=O)Nc2ccc3c(c2)CC(=O)N([C@@H](C)CO)C[C@H](C)[C@@H](CN(C)C(=O)NC2CCCCC2)O3)cc1 | – | activation [2]: 0.142% (inactive)
C=COCCn1c(C)c(C(C)=O)c2cc(O)ccc21 | – | activation (at 19.5 µM (top of the series)): 0.265% (inactive)
C[C@@H]1CN([C@@H](C)CO)C(=O)c2cccc(NS(=O)(=O)c3cn(C)cn3)c2O[C@H]1CN(C)Cc1ccncc1 | -0.172% (inactive) | –
O=C(NCc1ccccc1)C(c1ccc(C(F)(F)F)cc1)N1CCN(CCN2CCOCC2)CC1 (centres undefined) | 6.03% (inactive) | –
Cc1ccc(S(=O)(=O)Nc2cc(-c3ccccc3)nn2C)cc1Cl | -0.007% (inactive) | –
CCCC#Cc1ccc2c(c1)O[C@@H](CN(C)S(=O)(=O)c1cccc(OC)c1)[C@@H](C)CN([C@@H](C)CO)S2(=O)=O | 0.13% (inactive) | –
CS(=O)(=O)N1CCc2cc(S(=O)(=O)NCCNS(=O)(=O)c3ccc4c(c3)CCN4S(C)(=O)=O)ccc21 | 0.185% (inactive) | –
CCNC(=O)C[C@@H]1CC[C@H]2[C@@H](COc3ccc(NC(=O)Nc4ccc(F)cc4)cc3C(=O)N2C)O1 | -0.137% (inactive) | –
C[C@H]1CN([C@@H](C)CO)C(=O)c2cc(NC(=O)CCN3CCOCC3)ccc2O[C@@H]1CN(C)S(=O)(=O)c1ccc(Cl)cc1 | -0.142% (inactive) | –
Cn1nc(C(=O)NNC(=O)c2ccccc2Br)c2ccccc2c1=O | -0.008% (inactive) | –
C[C@H]1CN([C@@H](C)CO)C(=O)c2cccc(NC(=O)C3CCOCC3)c2O[C@H]1CN(C)Cc1ccc(Oc2ccccc2)cc1 | 0.01% (inactive) | –
C[C@H]1CN([C@@H](C)CO)C(=O)c2cc(NC(=O)C3CCCCC3)ccc2O[C@H]1CN(C)Cc1ccc(C(=O)Nc2ccccc2N)cc1 | 4.92% (inactive) | –
Cc1noc(C)c1NC(=O)Nc1ccc2c(c1)CC(=O)N([C@H](C)CO)C[C@H](C)[C@H](CN(C)S(=O)(=O)c1ccccc1)O2 | – | activation [2]: -0.132% (inactive)
CCC(=O)Oc1cccc(C(=O)Nc2cccc(NC(=O)c3ccco3)c2)c1 | -0.083% (inactive) | –
Cc1ccc(-c2nc3ccccc3c(=O)n2-c2cccc(O)c2)cc1 | – | activation (at 19.5 µM (top of the series)): 0.249% (inactive)

Structure (SMILES) | activation [1] | other results
CC(C)NC(=O)Nc1cccc2c1O[C@@H](CN(C)Cc1ccc(C(F)(F)F)cc1)[C@@H](C)CN([C@H](C)CO)C2=O | 0.009% (inactive) | –
C[C@H](CO)N1C[C@H](C)[C@H](CN(C)Cc2ccc(Oc3ccccc3)cc2)Oc2c(NS(C)(=O)=O)cccc2C1=O | 3.2% (inactive) | –
C[C@H]1CN([C@@H](C)CO)C(=O)Cc2cc(NS(C)(=O)=O)ccc2O[C@@H]1CN(C)Cc1ccncc1 | – | activation [2]: 0.217% (inactive)
Cc1cc(C(=O)Nc2cccc3c2O[C@H](CN(C)C(=O)NC2CCCCC2)[C@@H](C)CN([C@@H](C)CO)C3=O)n(C)n1 | -0.268% (inactive) | –
C[C@@H]1CN([C@@H](C)CO)C(=O)c2cc(NC(=O)Nc3ccc(C(F)(F)F)cc3)ccc2O[C@H]1CN(C)S(=O)(=O)c1ccccc1 | -0.17% (inactive) | –
C[C@H](CO)N1C[C@H](C)[C@H](CN(C)C(=O)Nc2ccc(C(F)(F)F)cc2)Oc2ccc(NC(=O)Cn3cnnn3)cc2CC1=O | 0.063% (inactive) | –
C[C@H]1CN([C@@H](C)CO)C(=O)c2cc(N(C)C)ccc2O[C@H]1CN(C)S(=O)(=O)c1cn(C)cn1 | 0.81% (inactive) | –
Cc1ccc(OC(F)F)c(N2C(=O)C3C4CCC(O4)C3C2=O)c1 (centres undefined) | – | activation (at 19.5 µM (top of the series)): -0.065% (inactive)
C[C@H](CO)N1C[C@H](C)[C@H](CN(C)Cc2ccc(Cl)c(Cl)c2)Oc2ccc(NS(=O)(=O)c3cccs3)cc2C1=O | 0.328% (inactive) | –
Cc1noc(C)c1COc1ccc(C(=O)N2CCC(C)CC2)cc1 | 8.94% (inactive) | –
C[C@H](CO)N1C[C@H](C)[C@H](CN(C)CC2CC2)Oc2c(NC(=O)C3CC3)cccc2C1=O | -0.037% (inactive) | –
C[C@@H]1CN([C@H](C)CO)C(=O)c2cc(NC(=O)CCCCCC(=O)Nc3ccccc3N)ccc2O[C@H]1CN(C)C(=O)Nc1ccc2c(c1)OCO2 | – | activation [2]: -0.113% (inactive)
C[C@@H]1CN([C@@H](C)CO)C(=O)Cc2cc(NC(=O)Nc3ccc(F)cc3)ccc2O[C@@H]1CN(C)Cc1ccc(C(=O)O)cc1 | -0.134% (inactive) | –
C[C@H]1CN([C@@H](C)CO)C(=O)c2cc(NC(=O)CCN3CCOCC3)ccc2O[C@H]1CN(C)S(=O)(=O)c1ccc(Cl)cc1 | -0.234% (inactive) | –
C[C@@H]1CN([C@H](C)CO)C(=O)Cc2cc(NC(=O)Cc3cn(C)c4ccccc34)ccc2O[C@@H]1CN(C)Cc1ccc(C(F)(F)F)cc1 | – | activation [2]: 0.433% (inactive)
C[C@@H]1CN([C@@H](C)CO)C(=O)Cc2cc(NC(=O)Cc3cn(C)c4ccccc34)ccc2O[C@H]1CN(C)Cc1ccc(C(F)(F)F)cc1 | 1.99% (inactive) | –
C[C@H](CO)N1C[C@H](C)[C@H](CN(C)C(=O)Nc2ccccc2)Oc2ccc(NS(C)(=O)=O)cc2C1=O | -0.163% (inactive) | –
Cc1cccc(CC(=O)Nc2sc(C(C)C)cc2C(=O)N2CCOCC2)c1 | 0.007% (inactive) | –
C[C@@H]1CN([C@@H](C)CO)C(=O)Cc2cc(NC(=O)CCCCCC(=O)Nc3ccccc3N)ccc2O[C@@H]1CN(C)C(=O)Nc1ccc2c(c1)OCO2 | 0.042% (inactive) | –
COc1ccc2sc(-c3ccccc3OC)c(-c3ccc(O)cc3)c2c1 | -0.095% (inactive) | –
C[C@H](CO)N1C[C@H](C)[C@H](CN(C)CC2CCCCC2)Oc2ccc(NC(=O)Nc3ccc4c(c3)OCO4)cc2C1=O | -0.185% (inactive) | –
CC(C)CCNC(=O)c1cn(C)c2ccc(S(=O)(=O)N3CCCC3)cc2c1=O | -0.129% (inactive) | –
COc1ccccc1CC(Cc1nc2ccccc2[nH]1)c1nc2ccccc2[nH]1 (centres undefined) | 0.165% (inactive) | –

Structure (SMILES) | activation [1] | other results
CCC(=O)c1ccc(OCC(=O)NNC(=O)c2cc(C)oc2C)cc1 | -0.03% (inactive) | –
COc1ccc(NC(=O)c2cc(S(=O)(=O)N3CCCCC3)c[nH]2)cc1 | 0.335% (inactive) | –
CC(=O)c1ccc(N(C(=O)CNC(=O)c2ccco2)C(C(=O)NC2CCCC2)c2ccc(C)o2)cc1 (centres undefined) | -0.024% (inactive) | –
C[C@@H]1CN([C@H](C)CO)C(=O)c2cc(Br)cnc2O[C@@H]1CN(C)C(=O)C1CC1 | -0.087% (inactive) | –
C[C@H](CO)N1C[C@H](C)[C@@H](CN(C)S(C)(=O)=O)Oc2c(NC(=O)C3CCCCC3)cccc2C1=O | – | activation [2]: 0.25% (inactive)
C[C@H](CO)N1C[C@H](C)[C@H](CN(C)C(=O)Nc2ccccc2)Oc2c(NS(=O)(=O)c3cccs3)cccc2C1=O | -0.044% (inactive) | –
COc1ccc(S(=O)(=O)Nc2ccc3c(c2)CC(=O)N([C@H](C)CO)C[C@@H](C)[C@@H](CN(C)C(=O)NC2CCCCC2)O3)cc1 | 0.114% (inactive) | –
COC(=O)c1noc(C)c1-c1ccnn1C(=O)c1ccc(C)cc1 | 0.122% (inactive) | –
C[C@@H]1CN([C@H](C)CO)C(=O)c2cc(NC(=O)C3CCCCC3)ccc2O[C@H]1CN(C)C(=O)Nc1ccc2c(c1)OCO2 | – | activation [2]: 4.77% (inactive)
CCOc1ccc(C(=O)N2CCN(S(=O)(=O)c3cccs3)CC2)c(OCC)c1 | -0.235% (inactive) | –
COC(=O)c1cc(S(=O)(=O)NCC2CCN(CCc3cccs3)CC2)c[nH]1 | 0.021% (inactive) | –
Cc1ccsc1CN(C)Cc1nc(C2CC2)no1 | 1.75% (inactive) | –
COc1ccc(CN(C)C[C@@H]2Oc3c(NC(=O)Nc4ccc(F)cc4)cccc3C(=O)N([C@@H](C)CO)C[C@H]2C)cc1 | 8.09% (inactive) | –
COCC(=O)N(C)C[C@H]1Oc2cc(-c3ccc(F)cc3)ccc2S(=O)(=O)N([C@@H](C)CO)C[C@H]1C | -0.091% (inactive) | –
CCN(CC)c1ccc(S(=O)(=O)N2CCOCC2)cc1NC(=O)CN1C(=O)NC2(CCCC2)C1=O | 4.54% (inactive) | –
C[C@H]1CN([C@@H](C)CO)C(=O)c2cc(NC(=O)CCN3CCOCC3)ccc2O[C@H]1CN(C)S(C)(=O)=O | -0.165% (inactive) | –
C[C@@H]1CN([C@@H](C)CO)C(=O)c2cc(NC(=O)Nc3ccc4c(c3)OCO4)ccc2O[C@H]1CN(C)C | -0.091% (inactive) | –
Cc1ccc(CCNC(=O)C2CCC(CNc3c(N4CCC(C)CC4)c(=O)c3=O)CC2)cc1 (centres undefined) | -0.022% (inactive) | –
O=S(=O)(Nc1cccc(S(=O)(=O)N2CCCC2)c1)c1cccs1 | 2.79% (inactive) | –
Cc1noc(C)c1NC(=O)N(C)C[C@@H]1Oc2ccc(NC(=O)c3ccncc3)cc2C(=O)N([C@H](C)CO)C[C@H]1C | -0.047% (inactive) | –
C[C@H]1CN([C@@H](C)CO)C(=O)c2cccc(NC(=O)c3ccncc3)c2O[C@H]1CN(C)Cc1ccc(C(=O)Nc2ccccc2N)cc1 | 0.016% (inactive) | –
C[C@@H]1CN([C@@H](C)CO)C(=O)Cc2cc(NC(=O)Cn3cnnn3)ccc2O[C@H]1CN(C)C(=O)Nc1ccc(F)cc1 | 0.031% (inactive) | –
CC(C)CC#Cc1cnc2c(c1)C(=O)N([C@H](C)CO)C[C@@H](C)[C@H](CN(C)C(=O)c1ccc3c(c1)OCO3)O2 | -0.021% (inactive) | –
